Reference: patent US10327446B2, “Naphthyl- or isoquinolinyl-substituted isothiazoline compounds” (BOEHRINGER INGELHEIM ANIMAL HEALTH USA INC., priority 2013, dated 2019)

Assays:
[1] = test system: Green Peach Aphid (Myzus persicae); assay: Green peach aphid systemic test on artificial diet in microtiter plates; format: in vivo; settings: 72 h, adult aphids on treated artificial diet, 3 days, read-out: mortality in comparison with untreated controls
Excerpt: B.2 Green Peach Aphid (Myzus persicae)
For evaluating control of green peach aphid (Myzus persicae) through systemic means the test unit consisted of 96-well-microtiter plates containing liquid artificial diet under an artificial membrane.
The compounds were formulated using a solution containing 75% v/v water and 25% v/v DMSO. Different concentrations of formulated compounds were pipetted into the aphid diet, using a custom built pipetter, at two replications.
After application, 5-8 adult aphids were placed on the artificial membrane inside the microtiter plate wells. The aphids were then allowed to suck on the treated aphid diet and incubated at about 23±1° C. and about 50±5% relative humidity for 3 days. Aphid mortality and fecundity was then visually assessed.

[2] = test system: Tobacco Budworm (Heliothis virescens); assay: Tobacco budworm microtiter plate diet test; format: in vivo; settings: 120 h, sprayed onto insect diet with eggs, egg and larval mortality after 5 days, read-out: mortality in comparison with untreated controls
Method: B.5 Tobacco Budworm (Heliothis virescens)
For evaluating control of tobacco budworm (Heliothis virescens) the test unit consisted of 96-well-microtiter plates containing an insect diet and 15-25 H. virescens eggs. The compounds were formulated using a solution containing 75% v/v water and 25% v/v DMSO. Different concentrations of formulated compounds were sprayed onto the insect diet at 10 μl, using a custom built micro atomizer, at two replications.
After application, microtiter plates were incubated at about 28±1° C. and about 80±5% relative humidity for 5 days. Egg and larval mortality was then visually assessed.

[3] = test system: Mediterranean Fruitfly (Ceratitis capitata); assay: Mediterranean fruitfly microtiter plate diet test; settings: 120 h, read-out: mortality in comparison with untreated controls
[4] = test system: Diamond Back Moth (Plutella xylostella); assay: Diamond back moth leaf-dip test; format: in vivo; settings: cabbage leaves dipped, 3rd instar larvae, 72 hours after treatment, read-out: mortality in comparison with untreated controls
Method: B.1 Diamond Back Moth (Plutella xylostella)
The active compound was dissolved at the desired concentration in a mixture of 1:1 (vol:vol) distilled water:aceteone. Surfactant (Kinetic HV) was added at a rate of 0.01% (vol/vol). The test solution was prepared at the day of use.
Leaves of cabbage were dipped in test solution and air-dried. Treated leaves were placed in petri dishes lined with moist filter paper and inoculated with ten 3rd instar larvae. Mortality was recorded 72 hours after treatment. Feeding damages were also recorded using a scale of 0-100%.

[5] = test system: Boll Weevil (Anthonomus grandis); assay: Boll weevil microtiter plate diet test; format: in vivo; settings: 120 h, sprayed onto insect diet with eggs, egg and larval mortality after 5 days, read-out: mortality in comparison with untreated controls
Method: B.6 Boll Weevil (Anthonomus grandis)
For evaluating control of boll weevil (Anthonomus grandis) the test unit consisted of 96-well-microtiter plates containing an insect diet and 5-10 A. grandis eggs.
The compounds were formulated using a solution containing 75% v/v water and 25% v/v DMSO. Different concentrations of formulated compounds were sprayed onto the insect diet at 5 μl, using a custom built micro atomizer, at two replications.
After application, microtiter plates were incubated at about 25±1° C. and about 75±5% relative humidity for 5 days. Egg and larval mortality was then visually assessed.

[6] = test system: Orchid Thrips (Dichromothrips Corbetti); assay: Orchid thrips floral-immersion test; format: in vivo; settings: orchid petals dipped, adult thrips, 72 hours after treatment, read-out: mortality in comparison with untreated controls
Method: B.7 Orchid Thrips (Dichromothrips Corbetti)
Dichromothrips corbetti adults used for bioassay were obtained from a colony maintained continuously under laboratory conditions. For testing purposes, the test compound is diluted in a 1:1 mixture of acetone:water (vol:vol), plus Kinetic HV at a rate of 0.01% v/v.
Thrips potency of each compound was evaluated by using a floral-immersion technique. All petals of individual, intact orchid flowers were dipped into treatment solution and allowed to dry in Petri dishes. Treated petals were placed into individual resealable plastic along with about 20 adult thrips. All test arenas were held under continuous light and a temperature of about 28° C. for duration of the assay. After 3 days, the numbers of live thrips were counted on each petal. The percent mortality was recorded 72 hours after treatment.

[7] = test system: Vetch Aphid (Megoura viciae); assay: Vetch aphid broad bean leaf disk test; format: in vivo; settings: foliar, 120 h, sprayed onto broad bean leaf disks, adult aphids, 5 days, read-out: mortality in comparison with untreated controls
Method: B.4 Vetch Aphid (Megoura viciae)
For evaluating control of vetch aphid (Megoura viciae) through contact or systemic means the test unit consisted of 24-well-microtiter plates containing broad bean leaf disks.
The compounds were formulated using a solution containing 75% v/v water and 25% v/v DMSO. Different concentrations of formulated compounds were sprayed onto the leaf disks at 2.5 μl, using a custom built micro atomizer, at two replications.
After application, the leaf disks were air-dried and 5-8 adult aphids placed on the leaf disks inside the microtiter plate wells. The aphids were then allowed to suck on the treated leaf disks and incubated at about 23±1° C. and about 50±5% relative humidity for 5 days. Aphid mortality and fecundity was then visually assessed.

O=C(NCC(F)(F)F)N/N=C/c1ccc(C2=NSC(c3cc(Cl)c(Cl)c(Cl)c3)(C(F)(F)F)C2)c2ccccc12 (stereo not drawn) [Compound 1-1, 1-[(E)-[4-[5-(3,4,5-trichlorophenyl)-5-(trifluoromethyl)-4H-isothiazol-3-yl]-1-naphthyl]methyleneamino]-3-(2,2,2-trifluoroethyl)urea]
≥ 75%: mortality at 2500 ppm [1] | mortality at 2500 ppm [2] | mortality at 2500 ppm [3] | mortality at 500 ppm [4] | mortality at 2500 ppm [5]

O=C(NCC1CC(F)(F)C1)c1ccc(C2=NSC(c3cc(Cl)c(Cl)c(Cl)c3)(C(F)(F)F)C2)c2ccccc12 (stereo not drawn) [Compound 2-1, N-[(3,3-difluorocyclobutyl)methyl]-4-[5-(3,4,5-trichlorophenyl)-5-(trifluoromethyl)-4H-isothiazol-3-yl]naphthalene-1-carboxamide]
≥ 75%: mortality at 2500 ppm [1] | mortality at 2500 ppm [2] | mortality at 2500 ppm [3] | mortality at 500 ppm [6] | mortality at 500 ppm [4] | mortality at 2500 ppm [7] | mortality at 2500 ppm [5]
